Measured values taken from paper PMC11606603, “The membrane domains of mammalian adenylyl cyclases are lipid receptors” (eLife, 2024).
Where “and” joins values, the source holds several entries; their conditions need not be identical. Equal values may be shown once.

Columns and labels:
Assay type in all cases: biochemical
mAC2 = target: T1, mAC2 (Homo sapiens, UniProt Q08462); assay: AC assay, Gsα-stimulated mAC2 in membranes from transfected HEK293 cells; conditions: Figure 5-figure supplement 1 left, 20 µM
T1 construct: Human mAC genes were from GenScript and fitted with a C-terminal FLAG-tag; FLAG (C); made in house; host or cells: HEK293, permanently transfected; membrane preparation
Procedure: (§1) hAC sequences were from NCBI were: ADCY1: NM_021116.3; ADCY2: NM_020546.2; ADCY3: NM_004036.4; ADCY4: NM_001198568.2; ADCY5: NM_183357.2; ADCY6: NM_015270.4; ADCY7: NM_001114.4; ADCY8: NM_001115.2; ADCY9: NM_001116.3. Human mAC genes were from GenScript and fitted with a C-terminal FLAG-tag. […] The gene was synthesized by GenScript. HEK293 cells were maintained in Dulbeccos Modified Eagle Medium (DMEM) with 10% fetal bovine serum at 37°C and 5% CO2. Transfection with AC plasmids was with PolyJet (SignaGen, Frederick, MD, USA). Permanent cell lines were generated by selection for 7 days with 600 µg/ml G418 and maintained with 300 µg/ml For membrane preparation, cells were tyrpsinized, collected by centrifugation (3000 × g, 5 min) and lysed and homogenized in 20 mM HEPES, pH 7.5, 1 mM Ethylenediaminetetraacetic acid (EDTA), 2 mM MgCl2, 1 mM Dithiothreitol (DTT), one tablet of cOmplete, EDTA-free (per 50 ml) and 250 mM sucrose by 20 strokes in a potter homogenizer on ice. Debris was removed (5 min at 1000 × g, 0°C), membranes were collected at 100,000 × g, 60 min at 0°C, suspended and stored at −80°C in 20 mM MOPS, pH 7.5, 0.5 mM EDTA, 2 mM MgCl2. […] Three cerebral cortices were dissected and homogenized in 4.5 ml cold 48 mM Tris–HCl, pH 7.4, 12 mM MgC1_2, and 0.1 mM Ethylene glycol-bis(β-aminoethyl ether)-N,N,N′,N′-tetraacetic acid (EGTA) with a Polytron hand disperser (Kinematica AG, Switzerland). […] The pellet was washed once with 5 ml 1 mM KHCO3. The final suspension in 2 ml 1 mM KHCO3 was stored in aliquots at −80°C.
(§2) In a volume of 10 μl, AC activities were measured using 1 mM ATP, 2 mM MgCl2, 3 mM creatine phosphate, 60 μg/ml creatine kinase, and 50 mM MOPS pH 7.5. The cAMP assay kit from Cisbio (Codolet, France) was used for detection according to the supplier’s instructions. For each assay, a cAMP standard curve was established. EC50 and IC50 values were calculated by GraphPad Prism version 8.4.3 for Windows, GraphPad Software, San Diego, CA, USA, https://www.graphpad.com .

mAC3 = target: T2, mAC3 (Homo sapiens, UniProt O60266); assay: AC assay, Gsα-stimulated mAC3 in membranes from transfected HEK293 cells; conditions: for mAC3 activity [%] (100% = 300nM Gsα stimulation): fatty acid 20 µM, individual experiments
T2 construct: Human mAC genes were from GenScript and fitted with a C-terminal FLAG-tag; FLAG (C); made in house; host or cells: HEK293, permanently transfected; membrane preparation
Procedure: as §1, §2

mAC5 = target: T3, mAC5 (Homo sapiens, UniProt O95622); assay: AC assay, Gsα-stimulated mAC5 in membranes from transfected HEK293 cells; conditions: 20µM fatty acid concentration
T3 construct: Human mAC genes were from GenScript and fitted with a C-terminal FLAG-tag; FLAG (C); made in house; host or cells: HEK293, permanently transfected; membrane preparation
Procedure: as §1, §2

mAC4 = target: T4, mAC4 (Homo sapiens, UniProt Q8NFM4); assay: AC assay, Gsα-stimulated mAC4 in membranes from transfected HEK293 cells; conditions: 20 µM fatty acid; 300 nM Gsα; single experiments
T4 construct: Human mAC genes were from GenScript and fitted with a C-terminal FLAG-tag; FLAG (C); made in house; host or cells: HEK293, permanently transfected; membrane preparation
T4 sequence (Q8NFM4 1-1077): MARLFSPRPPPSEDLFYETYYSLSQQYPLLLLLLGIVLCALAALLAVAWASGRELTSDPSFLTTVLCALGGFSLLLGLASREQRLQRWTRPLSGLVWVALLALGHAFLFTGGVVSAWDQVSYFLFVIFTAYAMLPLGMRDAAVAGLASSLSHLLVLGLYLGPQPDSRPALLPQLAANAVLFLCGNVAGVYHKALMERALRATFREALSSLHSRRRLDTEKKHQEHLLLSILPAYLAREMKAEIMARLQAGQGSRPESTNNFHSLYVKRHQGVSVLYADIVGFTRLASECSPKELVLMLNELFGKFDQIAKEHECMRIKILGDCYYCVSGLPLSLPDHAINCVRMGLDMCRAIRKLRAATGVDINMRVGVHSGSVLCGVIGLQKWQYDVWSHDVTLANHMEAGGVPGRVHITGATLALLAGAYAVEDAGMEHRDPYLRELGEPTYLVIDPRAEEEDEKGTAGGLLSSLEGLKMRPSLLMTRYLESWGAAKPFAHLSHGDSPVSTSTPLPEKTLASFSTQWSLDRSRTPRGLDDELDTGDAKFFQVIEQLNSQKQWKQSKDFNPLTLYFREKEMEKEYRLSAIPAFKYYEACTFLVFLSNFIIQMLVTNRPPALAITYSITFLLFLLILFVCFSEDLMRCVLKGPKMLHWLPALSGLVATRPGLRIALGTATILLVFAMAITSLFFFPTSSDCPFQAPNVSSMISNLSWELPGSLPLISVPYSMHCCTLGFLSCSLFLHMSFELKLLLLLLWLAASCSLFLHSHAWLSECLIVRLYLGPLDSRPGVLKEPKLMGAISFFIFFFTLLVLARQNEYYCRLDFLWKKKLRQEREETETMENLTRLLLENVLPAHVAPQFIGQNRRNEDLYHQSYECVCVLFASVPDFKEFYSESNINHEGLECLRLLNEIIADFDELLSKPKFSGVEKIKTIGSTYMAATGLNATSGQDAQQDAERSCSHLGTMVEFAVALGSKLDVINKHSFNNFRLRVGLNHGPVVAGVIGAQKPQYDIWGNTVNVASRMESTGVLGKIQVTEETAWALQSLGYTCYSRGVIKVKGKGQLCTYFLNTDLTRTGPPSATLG
Procedure: as §1, §2

mAC8 = target: T5, mAC8 (Homo sapiens, UniProt P40145); assay: AC assay, Gsα-stimulated mAC8 in membranes from transfected HEK293 cells; conditions: 20µM fatty acid concentration
T5 construct: Human mAC genes were from GenScript and fitted with a C-terminal FLAG-tag; FLAG (C); made in house; host or cells: HEK293, permanently transfected; membrane preparation
Procedure: as §1, §2

mAC6 = target: T6, mAC6 (Homo sapiens, UniProt O43306); assay: AC assay, Gsα-stimulated mAC6 in membranes from transfected HEK293 cells; conditions: 20µM fatty acid concentration
T6 construct: Human mAC genes were from GenScript and fitted with a C-terminal FLAG-tag; FLAG (C); made in house; host or cells: HEK293, permanently transfected; membrane preparation
Procedure: as §1, §2

mAC9 = target: T7, mAC9 (Homo sapiens, UniProt O60503); assay: AC assay, Gsα-stimulated mAC9 in membranes from transfected HEK293 cells; conditions: for mAC9 activity (%);(100% = Gsα stimulation) stimulated by 300nM Gsα: single experiments
T7 construct: Human mAC genes were from GenScript and fitted with a C-terminal FLAG-tag; FLAG (C); made in house; host or cells: HEK293, permanently transfected; membrane preparation
Procedure: as §1, §2

mAC1 = target: T8, mAC1 (Homo sapiens, UniProt Q08828); assay: AC assay, Gsα-stimulated mAC1 in membranes from transfected HEK293 cells; conditions: 20 µM fatty acid; 300 nM Gsα; single experiments
T8 construct: Human mAC genes were from GenScript and fitted with a C-terminal FLAG-tag; FLAG (C); made in house; host or cells: HEK293, permanently transfected; membrane preparation
Procedure: as §1, §2

mAC7 = target: T9, mAC7 (Homo sapiens, UniProt P51828); assay: AC assay, Gsα-stimulated mAC7 in membranes from transfected HEK293 cells; conditions: Figure 5-figure supplement 2 left, 20 µM
T9 construct: Human mAC genes were from GenScript and fitted with a C-terminal FLAG-tag; FLAG (C); made in house; host or cells: HEK293, permanently transfected; membrane preparation
Procedure: as §1, §2

T2 sequence (O60266 whole entry): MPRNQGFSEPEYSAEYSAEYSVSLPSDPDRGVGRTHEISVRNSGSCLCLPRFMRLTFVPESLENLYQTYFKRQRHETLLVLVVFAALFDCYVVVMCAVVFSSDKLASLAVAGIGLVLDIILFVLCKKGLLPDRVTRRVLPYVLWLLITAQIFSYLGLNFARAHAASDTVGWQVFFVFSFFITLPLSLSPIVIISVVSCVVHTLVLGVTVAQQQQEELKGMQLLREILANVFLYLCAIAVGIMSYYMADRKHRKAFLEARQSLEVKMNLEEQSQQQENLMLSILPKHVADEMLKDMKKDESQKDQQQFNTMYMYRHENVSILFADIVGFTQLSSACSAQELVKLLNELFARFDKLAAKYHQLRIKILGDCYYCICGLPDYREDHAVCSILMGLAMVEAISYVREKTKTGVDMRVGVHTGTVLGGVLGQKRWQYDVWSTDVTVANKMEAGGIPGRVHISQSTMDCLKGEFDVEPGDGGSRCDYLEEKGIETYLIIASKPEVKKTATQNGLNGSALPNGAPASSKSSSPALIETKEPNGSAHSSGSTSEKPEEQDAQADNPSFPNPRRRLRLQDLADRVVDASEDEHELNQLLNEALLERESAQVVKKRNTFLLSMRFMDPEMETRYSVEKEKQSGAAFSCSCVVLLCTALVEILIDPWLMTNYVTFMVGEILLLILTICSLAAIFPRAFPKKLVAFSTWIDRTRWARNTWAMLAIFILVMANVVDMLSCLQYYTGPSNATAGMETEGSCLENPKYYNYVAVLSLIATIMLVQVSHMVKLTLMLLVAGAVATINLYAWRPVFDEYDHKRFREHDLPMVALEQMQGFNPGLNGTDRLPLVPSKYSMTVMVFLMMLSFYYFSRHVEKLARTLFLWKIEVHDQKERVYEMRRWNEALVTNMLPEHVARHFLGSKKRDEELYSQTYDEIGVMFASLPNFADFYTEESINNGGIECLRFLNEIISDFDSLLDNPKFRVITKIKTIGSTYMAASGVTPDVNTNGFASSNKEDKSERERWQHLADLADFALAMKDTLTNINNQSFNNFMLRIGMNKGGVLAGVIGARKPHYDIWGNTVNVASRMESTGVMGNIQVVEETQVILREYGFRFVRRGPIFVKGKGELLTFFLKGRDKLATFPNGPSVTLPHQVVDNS
T2 sequence (P63092 whole entry Q227L partner): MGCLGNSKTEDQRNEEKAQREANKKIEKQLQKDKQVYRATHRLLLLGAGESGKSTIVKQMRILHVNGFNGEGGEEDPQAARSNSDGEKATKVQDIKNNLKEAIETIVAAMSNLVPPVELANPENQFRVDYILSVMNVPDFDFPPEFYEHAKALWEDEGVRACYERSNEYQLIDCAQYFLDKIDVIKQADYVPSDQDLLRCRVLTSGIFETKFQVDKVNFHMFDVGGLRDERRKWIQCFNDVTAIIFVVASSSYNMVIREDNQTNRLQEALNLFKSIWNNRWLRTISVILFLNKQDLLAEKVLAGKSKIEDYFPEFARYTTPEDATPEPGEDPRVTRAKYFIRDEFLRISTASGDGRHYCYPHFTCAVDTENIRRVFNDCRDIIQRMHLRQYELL
T5 sequence (P40145 whole entry): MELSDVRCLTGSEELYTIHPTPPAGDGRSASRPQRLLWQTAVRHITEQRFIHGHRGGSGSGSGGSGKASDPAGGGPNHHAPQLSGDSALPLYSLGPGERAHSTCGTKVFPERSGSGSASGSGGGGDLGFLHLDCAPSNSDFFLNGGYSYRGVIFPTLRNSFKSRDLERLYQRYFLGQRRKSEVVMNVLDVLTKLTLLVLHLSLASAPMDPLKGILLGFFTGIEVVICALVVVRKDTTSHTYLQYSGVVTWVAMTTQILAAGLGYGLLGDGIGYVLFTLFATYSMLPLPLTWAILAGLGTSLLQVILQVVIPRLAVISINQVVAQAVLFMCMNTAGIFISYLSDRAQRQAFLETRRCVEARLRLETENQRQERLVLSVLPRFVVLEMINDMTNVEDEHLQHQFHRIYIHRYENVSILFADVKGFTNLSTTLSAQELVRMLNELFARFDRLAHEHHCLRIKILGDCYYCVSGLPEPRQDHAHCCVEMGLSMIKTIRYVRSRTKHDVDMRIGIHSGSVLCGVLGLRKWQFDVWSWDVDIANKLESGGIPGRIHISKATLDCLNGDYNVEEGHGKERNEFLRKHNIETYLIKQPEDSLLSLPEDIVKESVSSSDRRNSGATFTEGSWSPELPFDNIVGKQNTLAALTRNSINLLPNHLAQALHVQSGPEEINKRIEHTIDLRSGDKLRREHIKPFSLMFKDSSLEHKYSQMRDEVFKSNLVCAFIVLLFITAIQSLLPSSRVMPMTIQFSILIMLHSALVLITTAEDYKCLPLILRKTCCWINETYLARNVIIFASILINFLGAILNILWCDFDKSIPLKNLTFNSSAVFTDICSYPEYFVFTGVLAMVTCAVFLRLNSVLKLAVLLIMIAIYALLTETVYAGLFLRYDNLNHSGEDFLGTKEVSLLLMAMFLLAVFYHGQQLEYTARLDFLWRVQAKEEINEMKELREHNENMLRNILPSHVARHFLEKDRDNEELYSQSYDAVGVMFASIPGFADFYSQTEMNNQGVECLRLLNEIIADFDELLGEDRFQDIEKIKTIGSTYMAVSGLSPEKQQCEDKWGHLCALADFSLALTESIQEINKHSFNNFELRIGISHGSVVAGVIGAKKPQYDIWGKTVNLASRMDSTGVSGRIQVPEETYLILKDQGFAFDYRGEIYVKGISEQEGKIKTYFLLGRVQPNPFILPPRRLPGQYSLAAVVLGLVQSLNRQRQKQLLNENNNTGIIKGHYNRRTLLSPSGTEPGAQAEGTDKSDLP
T1 sequence (Q08462 whole entry): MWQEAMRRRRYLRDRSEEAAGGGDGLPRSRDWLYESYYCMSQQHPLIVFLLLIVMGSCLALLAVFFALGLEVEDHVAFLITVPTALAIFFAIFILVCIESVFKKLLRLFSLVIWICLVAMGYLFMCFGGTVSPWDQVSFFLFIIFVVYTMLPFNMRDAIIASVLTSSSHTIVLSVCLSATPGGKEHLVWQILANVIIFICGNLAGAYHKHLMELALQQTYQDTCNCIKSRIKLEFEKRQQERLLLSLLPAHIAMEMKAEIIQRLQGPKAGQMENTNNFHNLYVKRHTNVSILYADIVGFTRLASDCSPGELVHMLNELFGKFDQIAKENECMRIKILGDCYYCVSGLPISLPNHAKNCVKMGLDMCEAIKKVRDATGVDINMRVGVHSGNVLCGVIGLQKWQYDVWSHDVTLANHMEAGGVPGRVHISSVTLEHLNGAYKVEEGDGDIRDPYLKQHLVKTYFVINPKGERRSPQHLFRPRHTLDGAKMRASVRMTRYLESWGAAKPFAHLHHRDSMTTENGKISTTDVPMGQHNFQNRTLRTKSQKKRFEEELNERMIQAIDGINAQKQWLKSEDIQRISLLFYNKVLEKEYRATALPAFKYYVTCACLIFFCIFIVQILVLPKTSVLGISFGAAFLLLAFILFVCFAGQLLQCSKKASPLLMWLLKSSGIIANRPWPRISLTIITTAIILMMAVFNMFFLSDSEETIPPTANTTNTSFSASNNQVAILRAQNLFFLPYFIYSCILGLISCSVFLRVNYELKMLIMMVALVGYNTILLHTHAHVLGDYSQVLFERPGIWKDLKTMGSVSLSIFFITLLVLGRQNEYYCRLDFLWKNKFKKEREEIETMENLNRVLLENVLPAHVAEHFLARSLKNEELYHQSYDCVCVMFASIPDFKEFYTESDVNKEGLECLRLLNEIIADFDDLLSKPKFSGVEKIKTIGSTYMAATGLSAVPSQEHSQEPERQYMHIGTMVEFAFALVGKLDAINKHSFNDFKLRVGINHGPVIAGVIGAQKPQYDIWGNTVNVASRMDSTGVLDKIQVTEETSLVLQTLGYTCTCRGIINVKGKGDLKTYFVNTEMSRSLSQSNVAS
T1 sequence (P63092 2-394 Q227L partner): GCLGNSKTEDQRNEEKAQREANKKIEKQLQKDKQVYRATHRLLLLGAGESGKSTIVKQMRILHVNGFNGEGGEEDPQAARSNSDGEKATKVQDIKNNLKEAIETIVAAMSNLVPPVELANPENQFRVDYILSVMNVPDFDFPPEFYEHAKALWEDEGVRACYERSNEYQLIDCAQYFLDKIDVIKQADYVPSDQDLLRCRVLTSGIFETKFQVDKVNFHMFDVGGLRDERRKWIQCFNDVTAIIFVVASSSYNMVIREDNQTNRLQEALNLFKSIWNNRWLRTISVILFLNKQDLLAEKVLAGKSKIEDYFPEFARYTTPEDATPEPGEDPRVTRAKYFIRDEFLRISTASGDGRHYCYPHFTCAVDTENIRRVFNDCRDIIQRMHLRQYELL

Row | Compound | mAC2 activity [%] (100% = 300nM Gsα stimulation); 20µM fatty acid concentration (mAC2) | mAC3 activity [%] (100% = 300nM Gsα stimulation) (mAC3) | mAC5 activity [%] (100% = 300nM Gsα stimulation) (mAC5) | mAC4 activity [%] (100% = 300nM Gsα stimulation); 20µM fatty acid concentration (mAC4) | mAC8 activity [%] (100% = 300nM Gsα stimulation) (mAC8) | mAC6 activity [%] (100% = 300nM Gsα stimulation) (mAC6) | mAC9 activity (%);(100% = Gsα stimulation) stimulated by 300nM Gsα (mAC9; 3 µM fatty acid) | mAC9 activity (%);(100% = Gsα stimulation) stimulated by 300nM Gsα (mAC9; 6 µM fatty acid) | EC50 (mAC9; enhancement of 300 nM Gsα-stimulated activity, read-out: EC50 for mAC9) [µM] | Effect of lipid on 300 nM Gsα-stimulated mAC3 (mAC3; 20 µM, in words) | mAC1 activity [%] (100% = 300nM Gsα stimulation); 20µM fatty acid concentration (mAC1) | mAC7 activity [%] (100% = 300nM Gsα stimulation); 20µM fatty acid concentration (mAC7) | mAC9 activity (%);(100% = Gsα stimulation) stimulated by 300nM Gsα (mAC9; 1 µM fatty acid) | mAC9 activity (%);(100% = Gsα stimulation) stimulated by 300nM Gsα (mAC9; 10 µM fatty acid)
1 | CCCCCCCCCCCC(=O)O [Lauric acid, Lauric (dodecanoic) acid] | 89% and 79% | 117% and 189% and 186% and 84% | 107% and 56% | 54% and 104% and 67% | 80% and 69% | 93% and 80% | 128% and 86% and 116% | 165% and 99% and 97% and 190% | 13.7 |  |  |  |  | 
2 | CCCCC/C=C\C/C=C\CCCCCCCC(=O)O [Linoleic acid, Linoleic ((9Z,12Z)-octadecadienoic) acid] | 118% and 99% and 198% and 131% | 376% and 503% and 335% and 235% and 456% | 112% and 153% |  | 119% and 212% and 115% and 129% | 105% and 198% and 128% | 129% and 139% and 117% and 119% | 164% and 205% and 170% and 134% and 195% |  | efficient enhancers | 62% and 76% and 95% | 135% and 130% | 145% and 101% and 154% and 180% | 240% and 217% and 225% and 306% and 322% and 286% and 203%
